Test results reported in US5989846A, “Assays to identify inducers of plant defense resistance” (Rutgers, The State University of New Jersey, priority 1995, dated 1999).

How the values were obtained:
[1] = test system: catalases from non-plant sources; test: Inhibition of non-plant catalases by salicylic acid; assay type: biochemical; conditions: catalases from fungi and animals
Text: Genes or cDNA copies for several of these catalases have been cloned (e.g. Scandalios, J. G. et al., Proc. Natl. Acad. Sci. USA, 77 (1980) 5360-5364; Bell, G. I. et al., Nucleic Acids Res., 14, (1986), 5561-5562; Hartig, A. et al., Eur. J. Biochem, 160, (1986) 487-490). A gene encoding one of these catalases can be introduced and expressed in a plant in the sense orientation using appropriate regulatory sequences (e.g. CaMV 35S promoter and nopaline synthase cleavage and polyadenylation signal) and vectors (e.g. PCGN 1540 or pCIB3064) as described in Example 25.

[2] = test system: SABP; set-up: concentration or dose not given beside the values; conditions: Table 6; previously published data (Chen et al. 1993); cited from earlier work
[3] = test system: ascorbate peroxidase; test: Ascorbate peroxidase activity in tobacco leaf extracts; assay type: biochemical, Nicotiana tabacum cv. Xanthi nc
Summary of the method: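 Soluble extracts from leaves of 6–8-week Nicotiana tabacum cv. Xanthi nc, desalted into 50 mM potassium phosphate pH 7 with 100 μM ascorbate, were assayed (30–50 μg protein) with or without 100 or 1000 μM SA or INA. Ascorbate oxidation followed as A290 decrease; means of three replicates.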

[4] = target: T1, horseradish peroxidase (Armoracia rusticana, UniProt P00433); test: Horseradish peroxidase activity; assay type: biochemical
T1 construct: purchased Sigma
T1 sequence (P00433 31-353): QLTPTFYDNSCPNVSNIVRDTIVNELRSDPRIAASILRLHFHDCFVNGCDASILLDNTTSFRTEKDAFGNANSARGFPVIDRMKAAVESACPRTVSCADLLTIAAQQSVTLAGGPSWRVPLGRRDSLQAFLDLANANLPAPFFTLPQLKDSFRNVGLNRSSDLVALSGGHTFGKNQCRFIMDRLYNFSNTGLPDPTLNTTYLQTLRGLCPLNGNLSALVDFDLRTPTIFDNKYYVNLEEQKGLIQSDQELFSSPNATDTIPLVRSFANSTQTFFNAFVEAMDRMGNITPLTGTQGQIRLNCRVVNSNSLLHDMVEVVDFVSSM
Experimental: Horseradish peroxidase (1 mg; obtained from Sigma) was dissolved in 1.5 ml 200 mM potassium phosphate, pH 6.2, containing 150 mM NaCl. Following a 15 minute incubation at room temperature, the enzyme solution was centrifuged (10,000 g, 10 minutes). After buffer exchange (PD-10, equilibrated with 25 mM potassium phosphate, pH 6.2), the protein concentration was adjusted to 0.5 mg/ml.
(§1) Guaiacol peroxidase activity was determined by the method of Chance and Maehly (Methods Enzymol. 2: 764 (1955)) using guaiacol as the substrate.
(§2) The formation of tetraguaiacol was monitored at 470 nm. The reaction mixture contained 0.25% guaiacol and 100 mM hydrogen peroxide in 20 mM potassium phosphate, pH 6.2. The amount of protein per 1 ml assay was […]. The reaction was measured for five minutes. The assay for horseradish peroxidase was identical, except that only 0.2-0.5 μg protein was used.

[5] = test system: guaiacol peroxidases; test: Guaiacol peroxidase activity in tobacco leaf extracts; assay type: biochemical, Nicotiana tabacum cv. Xanthi nc
Experimental: Inhibition of peroxidase by SA and INA was determined by measuring the enzyme activities in extracts prepared from tobacco leaves in the absence or presence of 100 μM or 1000 μM SA or INA. Two grams of leaves from 6-8 week old tobacco plants (Nicotiana tabacum cv. Xanthi nc) grown at 22° C. in a 14 hr light cycle were homogenized under liquid nitrogen using a pestle and mortar.
Total guaiacol peroxidase activity was extracted with 100 mM potassium phosphate, pH 6.2, containing 1% (weight/volume) polyvinylpyrrolidone. In order to also extract the ionically bound cell wall isozymes, the extraction buffer was supplemented with 600 mM KCl. Extraction and centrifugation steps were as described for ascorbate peroxidase. After removal of cell debris and ammonium sulfate precipitation (85%), the extract was desalted against 50 mM potassium phosphate, pH 6, containing 25% glycerol. The extract could be stored at -20° C. without significant loss of peroxidase activity.
as §1, §2

**Q.** What does the source list for O=C(O)c1ccccc1O [salicylic acid, 2-hydroxybenzoic acid]?
**A.** Sensitivity of non-plant catalases to inhibition [1]: insensitive to inhibition; Inhibition (%) [14C]SA binding [2]: 89%; % Inhibition of ascorbate peroxidase ([3]; 200 μM compound, corrected for quenching of auto oxidation): 83 ± 9%; IC50 ([3]; 750 μM ascorbate, 25 to 500 μM compound, FIG. 17, read-out: Concentration necessary for 50% inhibition (I50) of ascorbate peroxidase): ~80 µM; Activity ([3]; APX, 100 μM compound): 2.0 ± 0.2 μmols of oxidized substrate mi; Inhibition ([3]; APX, 100 μM compound): 59%; Activity ([3]; APX, 1,000 μM compound): 0.24 ± 0.1 μmols of oxidized substrate mi; Inhibition ([3]; APX, 1,000 μM compound): 95%; Activity ([4]; HRP, 100 μM compound): 251 ± 11 μmols of oxidized substrate mi; inhibition at 100 µM ([4]; HRP, 100 μM compound): -4%; Activity ([4]; HRP, 1,000 μM compound): 237 ± 21 μmols of oxidized substrate mi; inhibition at 1000 µM ([4]; HRP, 1,000 μM compound): 1%; Activity ([5]; POX, 100 μM compound): 2.7 ± 0.3 μmols of oxidized substrate mi; Inhibition ([5]; POX, 100 μM compound): 3%; Activity ([5]; POX, 1,000 μM compound): 2.7 ± 0.4 μmols of oxidized substrate mi; Inhibition ([5]; POX, 1,000 μM compound): 3%
